Measured values from BindingDB's records for doi:10.1021/cb900134c (Saic-Frederick, 2009).
pIC50: −log10 of the molar value.

The compounds below were run against T1, Broad substrate specificity ATP-binding cassette transporter ABCG2 (Homo sapiens, UniProt Q9UNQ0) (assay: Screening Assay for ABCG2 Inhibitors). Conditions: pH 7.4; 37 °C.
T1 sequence (Q9UNQ0 whole entry): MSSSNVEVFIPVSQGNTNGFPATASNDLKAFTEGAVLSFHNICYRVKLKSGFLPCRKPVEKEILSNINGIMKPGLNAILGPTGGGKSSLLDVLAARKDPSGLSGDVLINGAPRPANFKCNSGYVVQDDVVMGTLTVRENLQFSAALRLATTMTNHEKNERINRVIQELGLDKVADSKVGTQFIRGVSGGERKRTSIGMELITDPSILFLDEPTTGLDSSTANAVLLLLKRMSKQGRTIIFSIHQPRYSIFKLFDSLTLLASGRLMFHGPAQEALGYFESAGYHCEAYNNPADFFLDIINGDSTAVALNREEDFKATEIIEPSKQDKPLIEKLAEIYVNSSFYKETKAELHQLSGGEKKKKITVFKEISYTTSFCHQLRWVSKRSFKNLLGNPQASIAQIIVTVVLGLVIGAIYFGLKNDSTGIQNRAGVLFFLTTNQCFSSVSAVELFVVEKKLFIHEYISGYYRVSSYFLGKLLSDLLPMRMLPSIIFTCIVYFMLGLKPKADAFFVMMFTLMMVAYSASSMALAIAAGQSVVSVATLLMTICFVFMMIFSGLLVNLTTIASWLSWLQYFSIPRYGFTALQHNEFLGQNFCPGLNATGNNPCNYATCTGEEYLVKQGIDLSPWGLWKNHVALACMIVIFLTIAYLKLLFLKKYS
Experimental: IC50 and maximal activities for inhibition of PhA accumulation were determined from dose-response curves. The accumulation of PhA, a fluorescent ABCG2 substrate, formed the basis of the assay for inhibitors of ABCG2 activity. NCI-H460/MX20 cells were transferred to black-walled, clear-bottomed 384-well polylysine-coated assay plates (Corning) and allowed to attach for several hours. PhA was added, immediately followed by compounds or vehicle (DMSO/PBS) control and incubated for an additional 18 h. After removal of medium and washing with PBS containing Ca2+ and Mg2+, fluorescence intensity was read on a Tecan Safire fluorescence plate reader in bottom read mode (395 nm excitation, 670 nm emission). Each plate had control wells containing Fumitremorgin C (FTC). Data were normalized to FTC and reported as the percentage of FTC fluorescence. Apparent IC50 values were calculated from dose-response data using SigmaPlot (SPSS, Inc., Chicago) 4-parameter logistic nonlinear regression analysis.

Structure (SMILES)	pIC50
CO/C(=C/c1ccc(O)cc1)C(=O)N/C=C/c1cc(Br)c(OC)c(Br)c1 [Botryllamide B, 2]	4.95
CO/C(=C/c1ccc(O)cc1)C(=O)N/C=C/c1ccc(OC)c(Br)c1 [Botryllamide D, 4]	4.79
CO/C(=C/c1ccc(O)cc1)C(=O)N/C=C/c1ccc(OC)cc1 [Botryllamide I, 9]	4.38
COc1ccc2c3c([nH]c2c1)[C@H](C=C(C)C)N1C(=O)[C@@H]2CCCN2C(=O)[C@@H]1C3 [Fumitremorgin C]	6.10
CO/C(=C\c1ccc(O)cc1)C(=O)N/C=C/c1cc(Br)c(O)c(Br)c1 [US8470888, Botryllamide G]	5.16

More lines, now with the values ahead:

pIC50	Structure (SMILES)
4.48	CO/C(=C\c1ccc(O)cc1)C(=O)N/C=C/c1cc(Br)c(OC)c(Br)c1 [US8470888, Botryllamide A]
4.78	CO/C(=C\c1ccc(O)cc1)C(=O)N/C=C/c1ccc(O)cc1 [US8470888, Botryllamide F]
4.63	CO/C(=C\c1ccc(O)cc1)C(=O)N/C=C/c1ccc(OC)cc1 [US8470888, Botryllamide I]
